{"source": "patent US9802929B2", "about": "“Benzo five-membered nitrogen heterocyclic piperidine or piperazine derivatives and preparation methods and pharmaceutical compositions thereof” (Shenyang Haiwang Biotechnology Co., Ltd., priority 2012, dated 2017)", "key": {"[1]": {"tested_on": "In Vitro Vascular Smooth Muscle of Rabbits", "test": "Relaxant effect on in vitro rabbit vascular smooth muscle contraction induced by adrenaline (AD)", "details": "for EC50: Oryctolagus cuniculus; for relaxant effect against AD contraction (in words): rabbit vascular smooth muscle, AD 10^−5 mol/L", "source_text": "Krebs-Henseleit (K—H) physiological solution: NaCl 6.92 (concentration units), KCl 0.35, MgSO4 0.29, KH2PO4 0.16, CaCl2 0.28, NaHCO3 2.1, glucose 2.0 (g/L), pH 7.2.\nPreparation of compound II-1 to II-87 solutions: Weigh a certain quality compound samples and dilute to concentrations (10^−10˜10^−3 mol/L) with distilled water, standby.\n(§1) Cut the chest open quickly after stunning, strip out the descending aorta, then after removing the surrounding connective tissue and adipose tissue (if performed serotonin receptor antagonist experiments, endothelial cells should be removed using a smooth stainless steel bars), cut the vessels into 3-5 mm vascular ring, then pass the steel hook through the blood vessel ring, with one end is fixed to the vent hook and the other end connected to the tension transducer, then place the specimens into bath tube containing 20 mL of nutrient solution, and record tension change by tension transducer. Maintain tube temperature at 37±0.5° C., and pass bubbles (95% O2+5% CO2) into the solution as a speed of 1-2 bubbles/minute. Place an initial load of 1.5 g on the rings, and change nutrient every 20 minutes, then balance for 2 hours and start test after baseline readings are stabilized.\nAfter tension readings are stabilized, record a certain length of tension curve, and add spasmogens agent AD (10^−5 mol/L) to induce contraction; if a maximum contract is achieved, wash the specimens thoroughly, and change K—H solution every 20 minutes, and then balance for 60 minutes; after baseline readings are stabilized, induce contract with spasmogens agent again. When the maximum contract in the later induction is consistent with the former induction, add compound II-1 to II-34 solutions (1×10^−10 to 1×10^−3 mol/L), II-35 to II-87 solutions (1×10^−8-1×10^−3 mol/L), and record the curves. Draw a dose-response curve using maximum relaxation response as 100%, relaxation percentage as ordinate and negative logarithms of the each concentration as abscissa."}, "[2]": {"tested_on": "In-Vitro Vascular Smooth Muscle of Rabbits", "test": "Relaxant effect on in vitro rabbit vascular smooth muscle contraction induced by hyperkalemia solution", "details": "for EC50: Oryctolagus cuniculus; for relaxant effect against hyperkalemia solution contraction (in words): rabbit vascular smooth muscle"}, "α1 receptors": {"tested_on": "α1 receptors", "test": "Antagonism of α receptor agonist (noradrenaline / phenylephrine) cumulative contraction of rabbit aorta, pA2", "details": "for PA2 value against Phenylephrine contraction: Phenylephrine cumulative contraction; for PA2 value against NA contraction: noradrenaline (NA) cumulative contraction", "source_text": "as §1\nAfter the tension is stabilized, record a certain length of the curve, and add NA (10^−8-10^−4 mol/L) to the tube until a maximum response is achieved, and then record the curve. Then wash the specimen with K—H solution repeatedly, balance for 1 h, add compound II-36 (3×10^−7 mol/L), and 20 minutes later, add NA following a same procedure. Mark NA contraction as ordinate using maximum response as 100% base. […] The larger the PA2 value, the stronger the antagonist effect. It is calculated based on the values of the attached figures by software.\nAfter the tension is stabilized, record a certain length of the curve, and add NA (10^−8-10^−4 mol/L) to the tube until a maximum response is achieved, and then record the curve. Then wash the specimens repeatedly with K—H solution, and refresh K—H solution every 20 minutes, and balance for 60 minutes to allow baseline values are stabilized; then add doxazosin (10^−7 mol/L) and after 15 minutes, add NA in the same way (10^−8-6×10^−5 mol/L). Mark NA contraction as ordinate using maximum response as 100% base. […] The PA2 value of positive control doxazosin is 7.52±0.04 against NA contraction of rabbit aorta.\n(§2) After the tension is stabilized, record a certain length of the curve, and add NA (3×10^−7-6×10^−5 mol/L) to the tube until a maximum response is achieved, and then record the curve. Then wash the specimen with K—H solution repeatedly, balance for 1 h, add compound II-65 (3×10^−6 mol/L), and 20 minutes later, add NA (3×10^−7-3×10^−4 mol/L) following a same procedure. Mark NA contraction as ordinate using maximum response as 100% base. […] PA2 value of compound II-65 is 6.02±0.13 against NA contraction effect on rabbit aorta.\nAfter above procedures, wash the specimen repeatedly with K—H solution, balance for 1 hour, add doxazosin (10^−7 mol/L), and add NA in the same way after 15 minutes. Mark NA contraction as ordinate using maximum response as 100% base. […] The PA2 value of positive control doxazosin is 7.16±0.24 against NA contraction of rabbit aorta.\nas §2, with “Phenylephrine (10^−6-6×10^−3” for “NA (3×10^−7-6×10^−5”, “II-68 (3×10^−8” for “II-65 (3×10^−6”, “Phenylephrine” for “NA (3×10^−7-3×10^−4 mol/L)”, “Phenylephrine” for “NA”, “II-68” for “II-65”, “8.45±0.03” for “6.02±0.13”"}, "[3]": {"details": "relaxation of rabbit aortic rings contracted by AD (10^−5 mol/L)"}, "[4]": {"details": "relaxation of rabbit aortic rings contracted by hyperkalemia solution (K+ 60 mmol/L)"}}, "data": [{"smiles": "FC(F)(F)c1cccc(N2CCN(CCCCn3cnc4ccccc43)CC2)c1", "note": "[Compound II-36, 1-(4-(4-(3-trifluoromethylphenyl)piperazin-1-yl)butyl)-1H-benzimidazole]", "values": [{"measurement": "EC50", "setting": "[1]; [3]", "result": 1860, "unit": "nM"}, {"measurement": "relaxant effect against AD contraction (in words)", "setting": "[1]", "result": "most significant relaxation effects"}, {"measurement": "EC50", "setting": "[2]; [4]", "result": 4.57, "unit": "µM"}, {"measurement": "relaxant effect against hyperkalemia solution contraction (in words)", "setting": "[2]", "result": "significant relaxant effect"}, {"measurement": "PA2 value against Phenylephrine contraction", "setting": "α1 receptors", "result": "7.37±0.08"}, {"measurement": "PA2 value against NA contraction", "setting": "α1 receptors", "result": "7.37±0.08"}]}, {"smiles": "FC(F)(F)c1cccc(N2CCN(CCCCn3nnc4ccccc43)CC2)c1", "note": "[Compound II-65, 1-(4-(4-(3-trifluoromethylphenyl)piperazin-1-yl)butyl)-1H-benzotriazole]", "values": [{"measurement": "relaxant effect against AD contraction (in words)", "setting": "[1]", "result": "most significant relaxation effects"}, {"measurement": "−logEC50", "setting": "[1]; [3]", "result": "6.19 ± 0.03"}, {"measurement": "relaxant effect against hyperkalemia solution contraction (in words)", "setting": "[2]", "result": "relatively significant relaxant effect"}, {"measurement": "−logEC50", "setting": "[2]; [4]", "result": "5.55 ± 0.03"}, {"measurement": "PA2 value against NA contraction", "setting": "α1 receptors", "result": "6.02±0.13"}]}, {"smiles": "c1ccc2c(c1)nnn2CCCCN1CCN(c2nsc3ccccc23)CC1", "note": "[Compound II-68, 3-(4-(4-(1H-benzotriazol-1-yl)butyl)piperazin-1-yl)benzisothiazole]", "values": [{"measurement": "EC50", "setting": "[1]; [3]", "result": 8.51, "unit": "nM"}, {"measurement": "relaxant effect against AD contraction (in words)", "setting": "[1]", "result": "most significant relaxation effects"}, {"measurement": "EC50", "setting": "[2]; [4]", "result": 17, "unit": "µM"}, {"measurement": "PA2 value against Phenylephrine contraction", "setting": "α1 receptors", "result": "8.45±0.03"}]}]}
